The values that follow come from patent US9592214B2, “Compounds for the treatment of autism in a baby child” (INSERM (INSTITUT NATIONAL DE LA SANTE ET DE LA RECHERCHE …, priority 2010, dated 2017).

Test [1] has as its system hippocampal CA3 pyramidal cells. Description: DFGABA in hippocampal CA3 pyramidal cells of offspring after in utero VPA / maternal bumetanide pretreatment. It is filed as in vivo, rat. The settings on record: for DFGABA (mV), mean ± S.E.: P15 VPA rats, maternal bumetanide pretreatment (2-2.5 mg/kg in drinking water, 1 day before delivery). The procedure:
Time-mated female Wistar rats at gestational day E7-8 were housed under standard laboratory conditions. The in utero valproic acid (VPA) rodent model of autism spectrum disorders has been previously described in detail. Briefly, the sodium salt of VPA (Sigma-Aldrich) was dissolved in physiological saline solution to a concentration of 300 mg/ml. Pregnant rats received a single intra-peritoneal dose of 600 mg/kg on gestational day 12 (E12). The control dams received a single similar volume injection of saline at the same gestational time-point. Dams were housed individually and allowed to raise their own litters. The offspring were used for experiments on embryonic day 20 (E20) and postnatal (P) days 0, 2, 4, 7, 15 and 30 (after being weaned at P23). Experiments were carried out on offspring of either sex.
(§1) Experiments were performed on fetuses and neonatal rat pups. We removed E20 rats from deeply anesthetized dams [subcutaneous injection of a mixture of xylazine (Rompun 2%; used at 0.05%) and ketamine (Imalgene 1000 used at 50 g/l)]. Hippocampal slices ([…] thick) were prepared using a Microm tissue slicer (International GmbH, Germany) as described previously (Tyzio et al. 2006 Science 314, 1788; Tyzio et al, 2008, Eur J. Neurosci. 27(10):2515-28). Slices were kept in oxygenated (95% O2/5% CO2) artificial cerebrospinal fluid (ACSF) of the following composition (in mM): NaCl 126, KCl 3.5, CaCl2 2.0, MgCl2 1.3, NaHCO3 25, NaH2PO4 1.2 and glucose 11 (pH 7.4) at room temperature (20-22° C.) at least 1 hour before use.
For recordings, slices were placed into a conventional fully submerged chamber superfused with ACSF at a rate of 2-3 ml/min at room temperature. Patch clamp recordings from visually identified CA3 pyramidal cells in cell-attached configuration were performed using EPC-10 amplifier (HEKA Elektronik Dr. Schulze GmbH, Lambrecht/Pfalz, Germany). Patch pipette solution for recordings of single GABAA channels contained (in mM): NaCl 120, KCl 5, TEA-Cl 20, 4-aminopyridine 5, CaCl2 0.1, MgCl2 10, glucose 10, Hepes-NaOH 10 buffered to pH 7.2-7.3 and GABA 2 μM. Analysis of currents through single channels and current-voltage relationships were performed using Clampfit 9.2 (Axon Instruments, Union City, Calif.). Recordings were digitized (10 kHz) online with Digidata-1200 interface card (Axon Instruments, Union City, Calif.) and analyzed offline with Axon package, MiniAnalysis (S (Synaptsoft, Decatur, Ga.), and Origin (Microcal Software, Northampton, Mass.).
(§2) Bumetanide (10 μM), Oxytocin (1 μM) and Isoguvacine (2 μM) were directly added to the perfusion solutions. Bumetanide pretreatment (2-2.5 mg/kg) was given to the dams in drinking water. All drugs used were purchased from Sigma. SSR126768A (Sanofi-Synthelabo) pretreatment (1 mg/kg) was given to the dams in drinking water.
If the polarity of GABA actions at delivery produces long terms effects in offsprings, then restoring low [Cl^−]i and inhibitory GABA at delivery might restore physiological parameters in juvenile rodents. To test this hypothesis, pregnant females were treated orally 1 day before delivery with bumetanide (2-2.5 mg/kg in drinking water) and juvenile offspring neurons recorded at P15. […] In VPA rats, GABAergic inputs are excitatory and contribute to hyperexcitability of the network. Bumetanide decreases [Cl^−]i and consequently reduces contribution of excitatory GABAergic inputs in the overall network activity.

In a further test the test system is hippocampal slices. Description: Effects of isoguvacine on spike frequency, extracellular field potential recordings in hippocampal slices. The format is cell-based, rat. The settings on record: for Effects of isoguvacine on frequency of spikes in extracellular recordings (% of control), mean ± S.E.: VPA rats with maternal bumetanide pretreatment, P15. The procedure: as §1
Extracellular field potentials and multi-unit activity (MUA) recordings Recording were made in the hippocampal slices using tungsten wire electrodes (diameter: 50 μm, California Fine Wire, Grover Beach, Calif.) and a low-noise multichannel DAM-8A amplifiers (WPI, GB; […]; gain: ×1000). The signals were digitized using an analogue-to-digital converter (Digidata 1440A, Axon Instruments, USA). pCLAMP 10.1, Clampfit 10.1 (Axon Instruments, USA), MiniAnalysis 6.03 (Synaptosoft, Decatur, Calif.) and Origin 7.5 (Microcal Software, USA) programs were used for the acquisition and analysis of the synaptic activities. Sampling interval per signal was 100 microseconds (10 kHz).
as §2

Setting [2] is: P15 VPA offspring, maternal bumetanide pretreatment, result in words.

For `CCCCNc1cc(C(=O)O)cc(S(N)(=O)=O)c1Oc1ccccc1` [bumetanide], the “DFGABA values in offsprings” value in test [1] (setting [2]) is recorded as “restored control DFGABA values”. The results for the “DFGABA (mV), mean ± S.E.” value in test [1] and in test [1] (listed as BUM) were 0.4±1.1 mV and 0.4 ± 1.1 (n = 58) mV, respectively. The “excitatory actions of the GABAAR agonist isoguvacine” value in the test on hippocampal slices (setting [2]) is “suppressed the excitatory actions”. In addition, the “Effects of isoguvacine on frequency of spikes in extracellular recordings (% of control), mean ± S.E.” value in the test with hippocampal slices is 82.8±10.7 % of control; with hippocampal slices (listed as BUM), 82.8 ± 10.7 (n = 9), P < 0.05 % of control.
